Test results published in patent publication US12030875B2, “EIF4E inhibitors and uses thereof” (PIC Therapeutics, Inc., priority 2018, dated 2024).

The compounds below were run against T1, Human eIF4E (Homo sapiens, UniProt P06730) (assay: Human eIF4E/4G2 binding assay (TR-FRET)). Settings: eIF4E (aa 28-217) with biotin labeled 4G2 peptide.
T1 construct: Human eIF4E (aa 28-217) with a C-terminal His-tag; made in house
T1 sequence (P06730 28-217): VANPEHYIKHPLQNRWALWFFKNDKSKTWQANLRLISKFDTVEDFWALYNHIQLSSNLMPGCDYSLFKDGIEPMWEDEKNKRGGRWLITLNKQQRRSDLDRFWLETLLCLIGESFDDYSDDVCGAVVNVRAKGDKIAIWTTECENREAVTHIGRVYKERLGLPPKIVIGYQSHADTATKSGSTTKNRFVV
Description: Human eIF4E (aa 28-217) with a C-terminal His-tag was expressed in E. coli in inclusion bodies. The protein was solubilized with 8 M urea and purified under denaturing conditions using nickel-charged HisTrap HP columns (GE Healthcare). The purified protein was then refolded by diluting in 20 mM Hepes pH 7.0, 0.5 M NaCl, 1 mM DTT, 1 mM EDTA, 0.5 M arginine plus 6 M urea, and then dialyzing overnight into the same buffer without the urea. The protein was further dialyzed into 20 mM Hepes, pH 6.5, 50 mM NaCl, 1 mM EDTA, 1 mM DTT, and concentrated using Hitrap SP sepharose FF columns (GE Healthcare). The concentrated protein was dialyzed into 20 mM Hepes, pH 7.0, 0.5M NaCl, 5 mM DTT and 10% glycerol, and stored at −80° C. until use.
Test compounds (3.43 mM stock in DMSO) were diluted 2-fold in series in DMSO (10 concentration points). Compound solutions (1.2 μl/well) were added into black 384-well polypropylene microplates (Matrix, Thermal Scientific). Twenty-two microliters per well of Assay Buffer (50 mM NaPi, pH 6.5, 50 mM KCl, 1 mM DTT and 0.5 mg/ml gamma globulin) and eight microliters per well of 82.5 nM purified eIF4E in Assay Buffer were added. The samples were incubated at room temperature (20-23° C.) for 15 min. Biotin labeled 4G2 peptide (Ac-Lys-Gln-Tyr-Asp-Arg-Glu-Phe-Leu-Leu-Asp-Phe-Gln-Phe-Met-Pro-Lys(Aha-Bio)-NH2, 1.75 μM stock in DMSO) was diluted to 0.14 μM in Assay Buffer (without DTT) and 5 μl/well was added. The samples were incubated at room temperature for 15 min. Five microliters per well of 6.4 nM Eu-streptavidin (Eu-SA, Perkin Elmer) and 80 nM Allophycocyanin (APC)-anti His antibody (Columbia Biosciences) in Assay Buffer (without DTT) were then added and the samples were incubated at room temperature for 20 min.
Assay signals were monitored by reading excitation at 340 nm and emission fluorescence at 615 nm and 665 nm on an Envision reader (Perkin Elmer). Normalized TR-FRET (time-resolved fluorescence resonance energy transfer) assay signal (Rn) was calculated by the formula: Rn═[(A−Ba−C×D)/(D−Bd)]×(Dc−Bd) • Where A is the fluorescence intensity of the sample at 665 nm, • D is the fluorescence intensity of the sample at 615 nm, • Ba and Bd are plate backgrounds at 665 nm and 615 nm, respectively, • Dc is the fluorescence intensity of 0.78 nM Eu-SA in the assay buffer at 615 nm • The cross-talk factor (C) is determined by the following formula: C=(Ac−Ba)/(Dc−Bd) • Where Ac is the fluorescence intensity of 0.78 nM Eu-SA in the assay buffer at 665 nm.
IC50 values were calculated using xLFit program (IDBS).
For `O=C(O)[C@@H]1CCCN(c2nc(-c3ccc(-c4ccc(F)cc4)cc3)c(-c3ccccc3)s2)C1` [Compound I-223], the IC50 was < 5 µM. For `O=C(O)[C@H]1CCCN(c2nc(-c3ccc(Oc4ccccc4)cc3)c(-c3ccccc3)s2)C1` [Compound I-228], the IC50 was < 5 µM. `O=C(O)C1CC(CNc2nc(-c3ccc(-c4ccc(F)cc4)cc3)c(-c3ccccc3)s2)C1` (stereo not drawn) [Compound I-128] was tested, and the IC50 was < 5 µM. `CC(CC(=O)O)Nc1nc(-c2ccc(Oc3ccccc3)cc2)c(-c2cccc3[nH]ccc23)s1` (stereo not drawn) [Compound I-175] was tested, and the IC50 was > 25 µM. In the case of `CC(C)(CNc1nc(-c2ccc(-c3ccc(F)cc3)cc2)c(-c2ccccc2)s1)C(=O)O` [Compound I-72], the IC50 is reported as < 5 µM. For `O=C(O)C1CCCN(c2nc(-c3ccc(-c4ccc(F)cc4)cc3)c(-c3cncnc3)s2)C1` (stereo not drawn) [Compound I-107], the IC50 was > 25 µM. With `O=C(O)C1CC(CNc2nc(-c3ccc(-c4ccc(F)cc4)cc3)c(-c3cncnc3)s2)C1` (stereo not drawn) [Compound I-129] the IC50 was > 25 µM. `O=C(O)C1CN(c2nc(-c3ccc(-c4cnco4)cc3)c(-c3ccccc3)s2)CCO1` (stereo not drawn) [Compound I-56] was tested, and the IC50 was > 25 µM. For `O=C(O)C1CN(c2nc(-c3ccc(-c4ccc(F)cc4)cc3)cs2)C1` [Compound I-76], the IC50 was > 25 µM. `O=C(O)C1CN(c2nc(-c3ccc(-c4cnco4)cc3)c(-c3cncnc3)s2)CCO1` (stereo not drawn) [Compound I-57] was tested, and the IC50 was > 25 µM. In the case of `O=C(O)CCc1nc(-c2ccc(-c3ccc(F)cc3)cc2)c(-c2ccccc2)s1` [Compound I-234, 3-(4-(4′-fluorobiphenyl-4-yl)-5-phenylthiazol-2-yl)propanoic acid], the IC50 is reported as < 5 µM. `CC(CC(=O)O)Nc1nc(-c2ccc(-c3ccc(F)cc3)cc2)c(-c2cncnc2)s1` (stereo not drawn) [Compound I-96] was tested, and the IC50 was > 25 µM. Work on `CC(C)C(CC(=O)O)Nc1nc(-c2ccc(Oc3ccccc3)cc2)c(-c2cccc3[nH]ccc23)s1` (stereo not drawn) [Compound I-152] yielded an IC50 of 5 to 25 µM. `CC1(C(=O)O)CN(c2nc(-c3ccc(Oc4ccccc4)cc3)c(-c3ccccc3)s2)C1` [Compound I-163] gave an IC50 of 5 to 25 µM. `CC1(C(=O)O)CCCN(c2nc(-c3ccc(-c4cnco4)cc3)c(-c3ccccc3)s2)C1` (stereo not drawn) [Compound I-60] was tested, and the IC50 was > 25 µM. In the case of `O=C(O)C1(CNc2nc(-c3ccc(-c4ccc(F)cc4)cc3)cs2)CC1` [Compound I-120], the IC50 is reported as > 25 µM. For `O=C(O)CC1CCCN1c1nc(-c2ccc(-c3ccc(F)cc3)cc2)c(-c2cccnc2)s1` (stereo not drawn) [Compound I-113], the IC50 was > 25 µM. For `CCCC(CNc1nc(-c2ccc(-c3ccc(F)cc3)cc2)cs1)C(=O)O` (stereo not drawn) [Compound I-87], the IC50 was > 25 µM. For `O=C(O)C1(CNc2nc(-c3ccc(-c4ccc(F)cc4)cc3)c(Br)s2)CC1` [Compound I-121], the IC50 was 5 to 25 µM. In the case of `CC(C)[C@H](CC(=O)O)Nc1nc(-c2ccc(-c3ccc(F)cc3)cc2)c(Br)s1` [Compound I-222], the IC50 is reported as < 5 µM. In the case of `O=C(O)C1CCN(c2nc(-c3ccc(Oc4ccccc4)cc3)c(-c3ccccc3)s2)C1` (stereo not drawn) [Compound I-191], the IC50 is reported as < 5 µM. `O=C(O)C1CCCN(c2nc(-c3ccc(-c4ccc(F)cc4)cc3)c(-c3cccnc3)s2)C1` (stereo not drawn) [Compound I-108] was tested, and the IC50 was 5 to 25 µM. `O=C(O)C1CCN(c2nc(-c3ccc(-c4ccc(F)cc4)cc3)c(-c3cccc4[nH]ccc34)s2)C1` (stereo not drawn) [Compound I-119] gave an IC50 of 5 to 25 µM. `CCCC(CNc1nc(-c2ccc(-c3ccc(F)cc3)cc2)c(-c2cncnc2)s1)C(=O)O` (stereo not drawn) [Compound I-90] was tested, and the IC50 was > 25 µM. `CC(CC(=O)O)Nc1nc(-c2ccc(Oc3ccccc3)cc2)c(-c2ccccc2)s1` (stereo not drawn) [Compound I-172] gave an IC50 of 5 to 25 µM. In the case of `O=C(O)CC1CCCN1c1nc(-c2ccc(-c3ccc(F)cc3)cc2)c(-c2cccc3[nH]ccc23)s1` (stereo not drawn) [Compound I-114], the IC50 is reported as < 5 µM. With `O=C(O)C1CN(c2nc(-c3ccc(-c4ccc(F)cc4)cc3)c(-c3ccccc3)s2)CCO1` (stereo not drawn) [Compound I-140] the IC50 was < 5 µM. For `CC(CNc1nc(-c2ccc(-c3cnco3)cc2)cs1)C(=O)O` (stereo not drawn) [Compound I-26], the IC50 was > 25 µM. For `CC(C)(CNc1nc(-c2ccc(-c3cnco3)cc2)c(-c2cccc3[nH]ccc23)s1)C(=O)O` [Compound I-8], the IC50 was > 25 µM. For `CC(CNc1nc(-c2ccc(-c3cnco3)cc2)c(-c2cccc3[nH]ccc23)s1)C(=O)O` (stereo not drawn) [Compound I-30], the IC50 was > 25 µM. For `O=C(O)C1(CNc2nc(-c3ccc(Oc4ccccc4)cc3)c(-c3cncnc3)s2)CC1` [Compound I-197], the IC50 was > 25 µM. With `CC(C)(CNc1nc(-c2ccc(-c3cnco3)cc2)c(-c2ccccc2)s1)C(=O)O` [Compound I-5] the IC50 was > 25 µM. With `O=C(O)CC1CCCN1c1nc(-c2ccc(-c3cnco3)cc2)c(-c2ccccc2)s1` (stereo not drawn) [Compound I-36] the IC50 was > 25 µM. For `CC(C)C(CC(=O)O)Nc1nc(-c2ccc(-c3ccc(F)cc3)cc2)c(-c2cccnc2)s1` (stereo not drawn) [Compound I-68], the IC50 was > 25 µM. `O=C(O)CC1CCCN1c1nc(-c2ccc(Oc3ccccc3)cc2)c(-c2cccnc2)s1` (stereo not drawn) [Compound I-188] was tested, and the IC50 was > 25 µM. Compound `O=C(O)C1CCN(c2nc(-c3ccc(-c4ccc(F)cc4)cc3)c(-c3cccnc3)s2)CC1` [Compound I-138] has an IC50 of 5 to 25 µM. `CC(CC(=O)O)Nc1nc(-c2ccc(-c3ccc(F)cc3)cc2)c(-c2ccccc2)s1` (stereo not drawn) [Compound I-95] gave an IC50 of 5 to 25 µM. With `O=C(O)C1CN(c2nc(-c3ccc(Oc4ccccc4)cc3)c(-c3cncnc3)s2)CCO1` (stereo not drawn) [Compound I-214] the IC50 was > 25 µM. In the case of `O=C(O)C1(CNc2nc(-c3ccc(Oc4ccccc4)cc3)c(-c3cccc4[nH]ccc34)s2)CC1` [Compound I-199], the IC50 is reported as 5 to 25 µM. With `CC(CC(=O)O)Nc1nc(-c2ccc(-c3cnco3)cc2)c(-c2cccnc2)s1` (stereo not drawn) [Compound I-24] the IC50 was > 25 µM. In the case of `CC(CNc1nc(-c2ccc(-c3cnco3)cc2)c(-c2cncnc2)s1)C(=O)O` (stereo not drawn) [Compound I-28], the IC50 is reported as > 25 µM. In the case of `CC(CNc1nc(-c2ccc(-c3ccc(F)cc3)cc2)c(-c2ccccc2)s1)C(=O)O` (stereo not drawn) [Compound I-101], the IC50 is reported as 5 to 25 µM. With `CC(C)C(CC(=O)O)Nc1nc(-c2ccc(-c3ccc(F)cc3)cc2)c(-c2cccc3[nH]ccc23)s1` (stereo not drawn) [Compound I-69] the IC50 was 5 to 25 µM. For `O=C(O)C1CN(c2nc(-c3ccc(-c4ccc(F)cc4)cc3)c(-c3cccnc3)s2)C1` [Compound I-79], the IC50 was > 25 µM. `CC1(C(=O)O)CCCN(c2nc(-c3ccc(Oc4ccccc4)cc3)c(-c3cccnc3)s2)C1` (stereo not drawn) [Compound I-219] showed an IC50 of 5 to 25 µM. `CC(C)(CNc1nc(-c2ccc(Oc3ccccc3)cc2)c(-c2cccnc2)s1)C(=O)O` [Compound I-156] was tested, and the IC50 was > 25 µM. `CC(CNc1nc(-c2ccc(-c3cnco3)cc2)c(-c2cccnc2)s1)C(=O)O` (stereo not drawn) [Compound I-29] was tested, and the IC50 was > 25 µM. For `O=C(O)CC1CCCN1c1nc(-c2ccc(-c3ccc(F)cc3)nc2)c(-c2cncnc2)s1` (stereo not drawn) [Compound I-112], the IC50 was > 25 µM. For `CC(C)C(CC(=O)O)Nc1nc(-c2ccc(Oc3ccccc3)cc2)cs1` (stereo not drawn) [Compound I-148], the IC50 was > 25 µM. For `O=C(O)C1CC(CNc2nc(-c3ccc(Oc4ccccc4)cc3)c(-c3cncnc3)s2)C1` (stereo not drawn) [Compound I-202], the IC50 was > 25 µM. `CC1(C(=O)O)CCCN(c2nc(-c3ccc(-c4ccc(F)cc4)cc3)c(-c3cncnc3)s2)C1` (stereo not drawn) [Compound I-145] was tested, and the IC50 was > 25 µM. `CC1(C(=O)O)CN(c2nc(-c3ccc(-c4ccc(F)cc4)cc3)c(-c3cccc4[nH]ccc34)s2)C1` [Compound I-86] was tested, and the IC50 was 5 to 25 µM. For `CC(C)C(CC(=O)O)Nc1nc(-c2ccc(Oc3ccccc3)cc2)c(-c2cccnc2)s1` (stereo not drawn) [Compound I-151], the IC50 was > 25 µM. For `CC1(C(=O)O)CN(c2nc(-c3ccc(-c4cnco4)cc3)c(-c3cncnc3)s2)C1` [Compound I-14], the IC50 was > 25 µM.
